Counter-ions that a name gives are not always drawn.
Experiment: collision cross section in nitrogen (drift tube, single-field); higher = larger gas-phase ion size
[1] = ion type: [M+Na], ion source: ESI, ion mode: Positive
[2] = ion type: [M-H], ion source: ESI, ion mode: Negative
[3] = ion type: [M+H], ion source: ESI, ion mode: Positive
[4] = ion type: [M+H], ion source: APCI, ion mode: Positive
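Also: chemical standards at 10 µM analysed by drift tube IMS-QTOF MS in about 3.95 torr nitrogen, mean of duplicate injections differing ≤1%, mass error below 10 ppm.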

| collision cross section in nitrogen [2] [Å²] | collision cross section in nitrogen [3] [Å²] | Compound | collision cross section in nitrogen [1] [Å²] | other results |
| --- | --- | --- | --- | --- |
| 183.3 | 182.1 | CCOC(=O)COc1cc(-n2ncc(C(F)(F)F)c(C)c2=O)c(F)cc1Cl [Flufenpyr-ethyl] | 191.4 | – |
| – | – | CCCCCCCCCCCCNC(=N)N [Dodecylguanidine acetate] | – | collision cross section in nitrogen [4]: 175.2 Å² |
| 176.3 | – | CCCCCCCC/C=C\CCCCCCCC(=O)O [Oleic acid] | – | – |
| 225.2 | – | Cc1ccc2oc(CN(Cc3ccccc3)C(=O)Nc3c(F)cc(F)cc3F)c(-c3ccc(Cl)cc3)c2c1 | 226.8 | – |
| 131.2 | – | O=C(O)c1cccc([N+](=O)[O-])c1 [3-Nitrobenzoic acid] | – | – |
| – | – | CCOC(=O)n1ccn(C)c1=S [Carbimazole] | 148 | – |
| – | – | CC[N+](CC)(CC)Cc1ccccc1 [Benzyl trialkyl ammonium compound C2:C2:C2 (BTAAC C2:C2:C2)] | – | collision cross section in nitrogen (ion source: ESI, ion mode: Positive, ion type: [M]+ (permanent cation)): 143.1 Å² |
| 125.9 | – | N[C@@H](CCC(=O)O)C(=O)O [L-Glutamic acid hydrochloride] | – | – |
| 154.6 | – | Cc1cc(O)c2c(c1)C(=O)c1cc(O)cc(O)c1C2=O [Emodin] | – | – |
| – | – | CCCCCCCCC(=O)NCc1ccc(O)c(OC)c1 [N-Vanillylnonanamide] | 178 | – |
| – | 127 | c1ccc(-c2ccccn2)nc1 [2,2'-Bipyridine] | – | collision cross section in nitrogen [4]: 126.4 Å² |
| 155.8 | – | CCC(=O)O[C@H]1C[C@@H]2CC[C@@]1(C)C2(C)C [Isobornyl propanoate] | – | – |
| 195.6 | 191.7 | Nc1ccc2cc(S(=O)(=O)O)cc(O)c2c1N=Nc1ccccc1C(F)(F)F [Acid Red 337] | – | – |
| 231.2 | 219.7 | COc1ccc(N=Nc2cc(C)c(N=Nc3ccc(S(=O)(=O)O)cc3)cc2OC)cc1 [C.I. Acid Orange 156] | – | – |
| 169.3 | 173.6 | CC(C)c1ccc(C(=O)N=C(N)N)cc1S(C)(=O)=O [Cariporide mesylate] | 178.2 | collision cross section in nitrogen [4]: 175.1 Å² |
| 125.2 | – | Cc1c[nH]c2ccccc12 [3-Methylindole] | – | – |
| 133.3 | 132.6 | Cc1cc(=O)oc2cc(O)ccc12 [4-Methylumbelliferone] | – | – |
| 113.9 | 116.2 | Oc1ccncc1 [4-Pyridinol] | – | collision cross section in nitrogen [4]: 116 Å² |

| collision cross section in nitrogen [2] [Å²] | collision cross section in nitrogen [3] [Å²] | Compound | collision cross section in nitrogen [1] [Å²] | other results |
| --- | --- | --- | --- | --- |
| 220.4 | – | C[C@]12CC[C@@H]3c4ccc(O)cc4CC[C@H]3[C@@H]1CC[C@@H]2OC(=O)CCC1CCCC1 [Estradiol cypionate] | – | – |
| – | 149.6 | C[C@](N)(Cc1ccc(O)c(O)c1)C(=O)O [Methyldopa sesquihydrate] | – | – |
| 171 | – | O[Si](c1ccccc1)(c1ccccc1)c1ccccc1 [Triphenylsilanol] | – | – |
| 131.4 | – | Nc1c(Cl)cc(Cl)cc1[N+](=O)[O-] [2,4-Dichloro-6-nitroaniline] | – | – |
| – | 176.1 | COc1cc(OC)c(C(=O)CCCN2CCCC2)c(OC)c1 [Buflomedil hydrochloride] | 178.9 | collision cross section in nitrogen [4]: 176 Å² |
| 140.8 | – | N[C@@H](Cc1ccccc1)C(=O)O [L-Phenylalanine] | – | – |
| – | 144.8 | c1ccc([C@H]2CN3CCSC3=N2)cc1 [Levamisole hydrochloride] | 155.8 | collision cross section in nitrogen [4]: 144.2 Å² |
| – | – | CC1(C)C(C(=O)OC(C#N)c2cccc(Oc3ccccc3)c2)C1(C)C (centres undefined) [Fenpropathrin] | 186 | – |
| – | – | CC(C)CCCCCCCOC(=O)c1ccccc1C(=O)OCCCCCCCC(C)C [Diisodecyl phthalate] | 226.5 | – |
| – | 177.9 | CCCCN(CCCC)C(=O)N(CCCC)CCCC [1,1,3,3-Tetrabutylurea] | 194 | collision cross section in nitrogen [4]: 177.3 Å² |
| – | – | O=c1c2ccccc2oc2ccccc12 [Xanthone] | – | collision cross section in nitrogen [4]: 135.2 Å² |
| – | 200.8 | CCCCC1(COC(=O)CCC(=O)O)C(=O)N(c2ccccc2)N(c2ccccc2)C1=O [Suxibuzone] | 204.5 | collision cross section in nitrogen [4]: 201.3 Å² |
| – | 140.6 | CCN(CCO)c1cccc(C)c1 [2-(N-Ethyl-m-toluidino)ethanol] | – | collision cross section in nitrogen [4]: 140 Å² |
| 214.8 | – | COc1cc(S(=O)(=O)O)c(C)cc1N=Nc1c(O)ccc2cc(S(=O)(=O)O)ccc12 | – | – |
| – | – | CCC(CC)Nc1ccc(C)c(C)c1 [N-(1-Ethylpropyl)-3,4-xylidine] | 151.1 | – |
| – | 153.2 | CCOc1ccc2c(c1)C(C)=CC(C)(C)N2 [Ethoxyquin] | – | collision cross section in nitrogen [4]: 153.1 Å² |
| 257.6 | 253.6 | CCN(Cc1cccc(S(=O)(=O)O)c1)c1ccc(C(=C2C=CC(=[N+](CC)Cc3cccc(S(=O)(=O)O)c3)C=C2)c2ccccc2S(=O)(=O)[O-])cc1 [FD&C Blue No. 1] | – | – |
| – | – | C(COCC1CO1)OCC1CO1 (centres undefined) [Ethylene glycol diglycidyl ether] | 135.8 | – |

| Compound | collision cross section in nitrogen [2] [Å²] | collision cross section in nitrogen [3] [Å²] | collision cross section in nitrogen [1] [Å²] | other results |
| --- | --- | --- | --- | --- |
| O=C(NC(=O)c1c(F)cccc1F)Nc1ccc(Cl)cc1 [Diflubenzuron] | 169.5 | – | 177.4 | – |
| C=CC1(C)OC(=O)N(c2cc(Cl)cc(Cl)c2)C1=O (centres undefined) [Vinclozolin] | 154.4 | – | – | – |
| Cc1ccccc1O [o-Cresol] | 120.4 | – | – | – |
| Oc1cc(Cl)c(Cl)cc1Cl [2,4,5-Trichlorophenol sodium salt] | 128.6 | – | – | – |
| Cc1ccc(O)cc1C [3,4-Dimethylphenol] | 128.7 | – | – | – |
| O=C(Nc1ccccc1)N(Cc1ccc(Cl)cc1)C1CCCC1 [Pencycuron] | 185.7 | 180.5 | 192.8 | collision cross section in nitrogen [4]: 180.7 Å² |
| O=[N+]([O-])c1c2ccccc2cc2ccccc12 [9-Nitroanthracene] | 145.1 | – | – | collision cross section in nitrogen [4]: 145.5 Å² |
| CCCSP(=O)(OCC)Oc1ccc(Br)cc1Cl (centres undefined) [Profenofos] | – | 169.5 | 184.3 | – |
| Cc1cc(C(F)(C(F)(F)F)C(F)(F)F)ccc1NC(=O)c1cccc(I)c1C(=O)NC(C)(C)CS(C)(=O)=O [Flubendiamide] | 222.1 | – | 222.6 | – |
| O=C(Nc1ccc(Br)cc1)c1cc(Br)cc(Br)c1O [Tribromsalan] | 173.7 | – | – | – |
| CN(C)c1ccc(C(=O)c2ccc(N(C)C)cc2)cc1 [Bis(4-(dimethylamino)phenyl)methanone] | – | 166.5 | 175.8 | collision cross section in nitrogen [4]: 166.8 Å² |
